Laboratory results taken from publication PMC12858405, “Ideal efficacy photoswitching for chromocontrol of TRPC4/5 channel functions in live tissues” (Nature Chemical Biology, 2026).

Tests used:
[1] = target: T1, mouse TRPC5 (Mus musculus, UniProt Q9QX29); assay: FLIPR Ca2+ influx assay (Fluo-4) with 365/447 nm photoswitching, HEK293 stably expressing mouse TRPC5; format: cell-based; settings: for Activity on TRPC5 in FLIPR screening: 365/447 nm cycles; for EC50: Z* = mostly-Z PSS under 365 nm LED, Fluo-4-loaded cells, read-out: Agonistic EC50 (365 nm) TRPC5
T1 construct: expressed in transfected cells; host or cells: HEK293 (ATCC CRL 1573), stably transfected, tetracycline-induced
T1 sequence (Q9QX29 1-975): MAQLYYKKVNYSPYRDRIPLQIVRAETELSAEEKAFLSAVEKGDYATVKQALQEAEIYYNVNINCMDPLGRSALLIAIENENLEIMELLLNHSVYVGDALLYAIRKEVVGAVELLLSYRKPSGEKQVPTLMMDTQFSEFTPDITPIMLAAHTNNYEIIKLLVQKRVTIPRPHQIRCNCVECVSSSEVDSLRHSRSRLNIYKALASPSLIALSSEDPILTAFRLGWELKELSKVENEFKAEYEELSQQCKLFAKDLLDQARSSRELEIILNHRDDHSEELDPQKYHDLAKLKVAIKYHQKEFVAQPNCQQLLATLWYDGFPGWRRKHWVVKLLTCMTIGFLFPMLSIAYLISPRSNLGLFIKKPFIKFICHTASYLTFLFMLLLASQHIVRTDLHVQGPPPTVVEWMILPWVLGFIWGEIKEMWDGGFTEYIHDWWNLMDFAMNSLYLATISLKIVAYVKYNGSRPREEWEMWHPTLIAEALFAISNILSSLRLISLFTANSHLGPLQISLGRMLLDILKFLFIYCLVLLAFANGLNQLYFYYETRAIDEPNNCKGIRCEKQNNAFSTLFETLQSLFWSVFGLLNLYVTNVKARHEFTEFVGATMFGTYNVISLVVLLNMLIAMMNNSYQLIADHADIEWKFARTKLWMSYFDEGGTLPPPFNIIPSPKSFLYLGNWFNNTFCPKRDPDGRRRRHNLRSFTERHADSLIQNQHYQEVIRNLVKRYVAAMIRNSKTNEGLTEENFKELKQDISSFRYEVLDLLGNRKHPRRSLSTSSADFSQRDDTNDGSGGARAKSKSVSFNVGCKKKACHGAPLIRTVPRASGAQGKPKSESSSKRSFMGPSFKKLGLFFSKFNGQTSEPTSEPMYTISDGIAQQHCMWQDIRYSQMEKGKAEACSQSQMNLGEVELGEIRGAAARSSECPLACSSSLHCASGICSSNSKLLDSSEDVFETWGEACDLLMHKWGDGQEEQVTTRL
Source text: We initially screened for the photoswitchability of activity in cells using a fluorometric imaging plate reader (FLIPR) calcium flux assay, with HEK293 cells stably expressing mouse TRPC4β or mouse TRPC5. Note, however, that the parallel-throughput FLIPR setup is limited to use fixed light-emitting diodes at 365 nm (good Z) and 447 nm (suboptimal E), which, combined with the slowness of the onset and recovery of the fluorescence readout for calcium, causes the FLIPR results to underestimate the reagents’ true speed, degree and completion of TRPC chromocontrol (shown later). […]
3 Cultured Cell Lines (primarily for Fig. 1 and Fig. 2)
3.1 FLIPR Ca2+ influx assay in cell suspensions.
We initially screened for photoswitchability of activity in cells, using a fluorometric imaging plate reader (FLIPR) calcium flux assay, with human embryonic kidney cell line HEK293 stably transfected to express mouse TRPC4β- or TRPC5-CFP fusion protein (HEKmTRPC4β-CFP / HEKmTRPC5-CFP, HEK293 obtained from ATCC CRL 1573). The FLIPR setup provides high-content data, but it is limited to using LED wavelengths of 365 nm (best-Z) and 447 nm (suboptimal-E), while imaging at 470 nm excitation (Fluo-4 AM as Ca2+ indicator; this imaging light counteracts both PSSs). Therefore, we expected the FLIPR results to under-estimate the true chromocontrol power accessible to the reagents.
Cells were grown to 70%-90% confluency in a 75-cm2 culture flask, trypsinised, washed and resuspended in BSA-containing (0.1%) HBS, and supplemented with 3 µM Fluo-4/AM. Stably TRPC-transfected cells were induced with tetracycline 24 h prior to the experiments.42,43 After incubation at 37°C for 30 min [Fluo-4 loading], cells were again washed, resuspended, and dispensed (40 µl/well) into black pigmented, clear-bottom 384-well plates (Greiner µ-clear). To image the Fluo-4 fluorescence during the application and photoswitching of test compounds, these plates were first mounted to a Tecan Fluent 480 (Tecan, Männedorf, Switzerland) liquid handling device, equipped with a 384-tip multichannel arm and a gripper arm. A custom-made plate-imaging device was used for photoswitching during fluorescence imaging, which features LED-based excitation modules (365 nm and 447 nm used here for photoswitching, and 470 nm used here for Fluo-4 readout) projected onto the bottom of the microwell plate, with a cooled scientific complementary metal oxide sensor (sCMOS) camera (Zyla 5.5, Andor, Belfast, UK) equipped with a Nokton 42.5 mm f/0.95 (Voigtlaender, Fürth, Germany) for detection. The LEDs were controlled with an Arduino device and constant current drivers (1 A for 365 and 470 nm LEDs; 3 A for 447 nm LED); detection was under the control of Micromanager 2.0 software. Compounds were serially diluted and applied to the Fluo-4-loaded cell suspensions inside this custom plate-imaging device, then fluorescence intensities (under 470 nm excitation) were continuously recorded during programmed illuminations e.g. with alternating 365 nm and 447 nm phases.
Concentration-response curves for the Z-isomers (channel activation) were then constructed from the maximal signals during 365 nm phases, after a suitable number of "priming" cycles to allow the system to reach stable performance (Supplementary Fig. 13).
All experiments were conducted as a minimum of 3 independent experiments with each experiment averaging data in technical duplicates. […]
Cellular TRPC5 photoswitching: HEK cell Ca2+ influx photomodulation […]
Supplementary Figure 12. […] All […]
four compounds' profiles are consistent with their being ideal efficacy photoswitches (representative traces from one experiment out of ≥3 independent experiments each run in technical duplicates). […]
log c [nM] log c [nM] log c [nM] log c [nM]
Supplementary Figure 13. Dose-response for Z*-AzPico, Z*-AzPico2, Z*-AzHC, and Z*-AzHC2 on TRPC5 and […]

[2] = tested on: Th+ neurons of Th-GCaMP6f (WT) mice; assay: GCaMP6f Ca2+ imaging of Th+ neurons in arcuate nucleus brain slices with 355 nm photoswitching, Th-GCaMP6f (WT) mice; settings: for EC50: Mus musculus, Neuron, read-out: EC50 of Z-isomer-induced Ca2+ responses (ΔAUC) in Th+ neurons, WT
Source text: slices through the ARC of mice expressing the Ca2+ indicator GCaMP6f in Th+ neurons (Fig. 4),
we investigated (1) whether Ca2+ responses at endogenous TRPC5 expression levels can be
TRPC5 expression using TRPC5-deficient brain slices, (3) whether a dose dependence could be
detected, and (4) whether there are properties in channel activity that can be distinguished between
concentration-response measurements (Fig. 5d).

| Compound | Effect of E isomer alone on TRPC5 ([1]; 12 pM to […], before 365-nm illumination) | Activity on TRPC5 in FLIPR screening [1] | EC50 [1] | Cells with sustained high Ca2+ signal lasting up to 3 min (count) ([2]; 500 nM, 355 nm pulse) | EC50 [2] | Cells with sustained high Ca2+ signal lasting up to 3 min ([2]; 500 nM, 355 nm pulse) |
| --- | --- | --- | --- | --- | --- | --- |
| Cn1c(=O)n(CCCO)c(=O)c2c1nc(Oc1ccc(/N=N/c3ccccc3)c(OC(F)(F)F)c1)n2Cc1ccc(Cl)cc1 [E-AzPico] | no effect |  |  |  |  |  |
| Cn1c(=O)n(CCCO)c(=O)c2c1nc(Oc1ccc(N=Nc3ccccc3)c(OC(F)(F)F)c1)n2Cc1ccc(Cl)cc1 [AzPico] |  | photoswitchable activity | 4 nM | 13 out of 31 |  |  |
| Cn1c(=O)n(CCCO)c(=O)c2c1nc(Oc1ccc(/N=N\c3ccccc3)c(Cl)c1)n2Cc1ccc(Cl)cc1 [Z*-AzHC] |  |  | 6.4 nM |  | 130 ± 100 nM |  |
| Cn1c(=O)n(CCCO)c(=O)c2c1nc(Oc1ccc(N=Nc3ccccc3)c(Cl)c1)n2Cc1ccc(Cl)cc1 [AzHC] |  | photoswitchable activity | 6.4 nM | 14 of 33 | 130 ± 100 nM | 42% |
